Patent US20110008279A1, “Methods and Compositions Relating to Adhesins as Adjuvants” (priority 2005, published 2011)

Experiments:
[1] = test system: monocytes; assay: Apoptosis and survival of monocytes (caspase-3 assay, MTT assay); type: cell-based, human
Description: A) Caspase-3 assay, B) MTT assay.
The survival effect of NadA on monocytes was investigated. […] Apoptosis was not increased after a 40 hour exposure to NadAΔ351-405 or LPS. […] NadA survival effect was compared with the action of LPS or medium alone.

[2] = test system: human monocytes; assay: Surface markers of human monocytes; type: cell-based
Text: (§1) The functional effect of NadA on human monocytes and macrophages was investigated using a soluble recombinant mutant lacking the membrane anchor and a full length protein expressed in E. coli OMV or N meningitidis OMV. To better define the immuno-modulatory activity of NadA, the cells were stimulated with protein plus or minus both microbial stimulus (LPS) and immunological stimulus (IFNγ).
(§2) The effect of NadAΔ351-405 on monocyte and macrophage cells was further investigated by measuring the expression of the antigen presentation marker MHC-II, the co-stimulatory molecules CD80 and CD86 and the cell adhesion molecule ICAM-1.

[3] = test system: human macrophages; assay: Cytokine and chemokine secretion by human macrophages (Bio-Plex, IL-23 ELISA); type: cell-based
Description: The secretion of various immune mediators by isolated adherent human […] and macrophages was assayed with a Bio-Plex immune array. The pro-inflammatory cytokines IL-1α, IL-1β, TNFα, IFNγ, IL-6, the growth factor GM-CSF, the regulatory cytokines IL-12 (p40), IL-12 (p70), IL-10, as well as the chemokines IL-8, MCP-1, MIP-1α, IP-10, RANTES and EOTAXIN were assayed. The lymphocyte cytokines IL-2, IL-3, IL-4, IL-5, IL-7, IL-13 and IL-15 were also assayed. IL-23 expression was assayed using an ELISA assay. No secretion of IL-2, IL-3, IL-4, IL-5, IL-7, IL-13 or IL-15 was detected.
Peripheral monocytes and macrophages were stimulated with different concentrations of NadAΔ351-405, with or without LPS (0.2 μg/ml) and IFNγ (1000 U/ml), and with purified E. coli or N. meningitis OMV.

[4] = test system: human macrophages; assay: Surface markers of human macrophages; type: cell-based
Text: as §1, §2

[5] = test system: allogenic CD4+ naïve T lymphocyte; assay: Allogenic mixed leukocyte reaction, naive CD4+ T-cell proliferation; type: cell-based, human
Description: Allogenic mixed leukocyte reaction was performed with irradiated (3000 rads from a ^137Cs source) mo-DC and purified allogenic T cells. […], LPS 1 μg/ml (positive control) and non stimulated DC (negative control) pretreated or not with IFN-γ 1000 U/ml were washed and cultured with allogenic CD4+ naïve T lymphocyte (0.3×10^5 cells/well) for 5 days at 37° C. in a humidified CO2 incubator in round-bottom 96-well microtiter plates (Costar). Proliferation was measured by pulse-labelling triplicate wells for 6 h with 1 μCi of 3H-Thymidine/well (Amersham Biosciences). Negative controls included T naive cells incubated or DC incubated alone.
^3H-Thymidine incorporation was measured by harvesting cells onto glass fiber filter paper (Pall Corporation, Life Sciences) using a 96-well semiautomatic cell harvester (Multiwash 2000, Dynatech) and counting by liquid scintillation in a […] (Wallac 1409 liquid scintillation counter).

[6] = test system: mo-DCs; assay: Morphology of mo-DCs (light microscopy); type: cell-based, human; settings: IFN-γ priming 18 hours, NadAΔ351-405 1.5 μM, 3 hours
[7] = test system: human monocytes; assay: Cytokine and chemokine secretion by human monocytes (Bio-Plex, IL-23 ELISA); type: cell-based
[8] = test system: human macrophages; assay: NadA binding to human macrophages; settings: 37° C.
Description: (§3) The graphs plot the mean fluorescence intensities (MFI) ±SD measured in human macrophages that have been incubated with NadAΔ351-405-Alexa, at different concentrations (A), or with 100 nM NadAΔ351-405-Alexa in presence of increasing concentrations of unlabelled protein (B), for 3 hours at 37° C. or 0° C. The reported data are the average of three independent experiments repeated in triplicate.
NadA binding to monocyte-derived macrophages was also investigated. A dose-dependent association of NadA to macrophages was confirmed by MFI analysis and competition by non-labelled ligand was used to ascertain whether NadA binding was specific.

[9] = test system: human monocytes; assay: Long-term morphology of monocytes (light microscopy); type: cell-based
Description: In order to evaluate the possible long-term, differentiation effect of NadA, adherent monocytes were treated with medium alone, NadAΔ351-405 or E. coli LPS and cells were cultured for seven days. At day 4 the agonists were added again to ensure a constant stimulation. Cell morphology was monitored by light microscopy after 1, 2, 3 and 7 days. […] NadAΔ351-405 thus induces both alteration cell morphology and distribution, this is a good indicator of monocyte activation and differentiation.

[10] = test system: monocytes; assay: NadA binding to monocytes; parameters: species or system human
Description: as §3, with “monocytes” for “human macrophages”
The dose-dependent preferential association of NadA to CD14^+ monocytes was also confirmed by MFI analysis. Competition using non-labelled ligand ascertained whether NadA binding was specific (FIG. 12). […] Based on the molecular weight of the NadA monomer, this value is in fact ˜1 μM, since the recombinant protein used in the experiment is a homo-trimer.

NadAΔ351-405
apoptotic effect compared with medium-treated monocytes [1]: four times less
apoptotic effect compared with the amount induced by LPS [1]: two times less
CD80 expression ([2]; co-stimulation with IFN-γ): increased
CD86 or HLA-DR expression ([2]; with LPS or IFN-γ): No NadA immunomodulatory effect
EOTAXIN expression [3]: decrease
GM-CSF secretion [3]: No secretion
IL-1α production [3]: No IL-1α was produced
IL-1β and TNFα production [3]: produced only IL-1β and TNFα
IL-10 production [3]: induced the production
IP-10 production ([3]; NadA alone): In neither monocytes nor macrophages was NadA alone able to produce IP-10
IL-12(p40) expression ([3]; NadA alone, even in the presence of LPS and IFNγ): decrease
IL-6 secretion ([3]; together with IFNγ): increasing secretions
ICAM-1 expression [4]: increased
HLA-DR expression ([4]; IFN-γ co-stimulation): greatly enhanced
CD80 expression ([4]; co-stimulation with IFN-γ): increased
CD86 expression ([4]; co-stimulation with LPS): Partial stimulation
T lymphocyte activation by mo-DCs ([5]; absence of IFN-γ priming, 1 μM): not able to induce a mo-DC phenotype competent for T lymphocyte activation
T cell proliferation relative to LPS-matured mo-DCs ([5]; mo-DCs primed with INFγ then stimulated with NadA): 30-40%
cell morphology [6]: some cells became elongated and tended to cluster
IL-10 production [7]: induced the production
IL-23 expression [7]: only in the presence of IFNγ
MCP-1 production [7]: significant levels
IL-1α, IL-1β and TNFα secretion ([7]; NadA alone): not significantly induced
IL-8 secretion ([7]; NadA alone): significant secretion
IP-10 production ([7]; NadA alone): In neither monocytes nor macrophages was NadA alone able to produce IP-10
IL-12(p40) and IL-12(p70) expression ([7]; alone or in the presence of LPS): not significantly expressed
expression of IL-1α and TNFα ([7]; co-stimulation with LPS): inhibited
GM-CSF secretion ([7]; even with IFNγ co-stimulation): does not stimulate secretion
IL-10 expression (so in the source) ([7]; only in the presence of IFNγ and LPS): efficiently increased
IL-6 secretion ([7]; presence or absence of LPS): significant secretion
MIP-1α production ([7]; with or without co-stimulus): produced
decrease of the signal associated to macrophages by non-labelled ligand [8]: −50%
cell morphology ([9]; 3-day incubation): became elongated and tended to cluster
number of surviving cells with respect to the control ([9]; 7 culture days): greatly increased
decrease of the signal associated to monocytes by excess non-labelled NadA ([10]; 5 uM non-labelled, 125 nM Alexa-NadA, 37° C., BafA1): −50%
affinity (Kd) of association to monocyte ([10]; NadA-I125 conjugate, Scatchard Plot): ~3 µM
Kd of association to monocyte, value for the homo-trimer ([10]; corrected because the recombinant protein is a homo-trimer): ~1 µM
